According to patent US20080103127A1, “METHODS FOR TREATING DISRUPTIVE BEHAVIOR DISORDERS” (priority 2006, published 2008):

Tested on: general behavior of male mice
Test: General behavior of male mice by visual observation using a checklist of behaviors
Type: in vivo
Conditions: for Number of Mice Affected: Decreased Open Field Activity / Number of Mice Affected: Decreased Startle Reflex / Number of Mice Affected: Extensor Limb Tone (hind limb) / Number of Mice Affected: Impaired Horizontal Screen Performance / Number of Mice Affected: Impaired Visual Placing Reflex / Number of Mice Affected: Locomotor Ataxia / Number of Mice Affected: Loss of Corneal Reflex / Number of Mice Affected: Loss of Pinnal Reflex / Number of Mice Affected: Loss of Righting Reflex / Number of Mice Affected: Passive Response to Handling / Number of Mice Affected: Reduced Skin Plasticity / Number of Mice Affected: Soft Body Tone / Number of Mice Affected: Tail Pinch Response, Absent: N = 3/group
Protocol: The effects of test compound on general behavior were evaluated by visual observation using a checklist of behaviors.

- Number of Mice Affected: Decreased Open Field Activity (40 mg/kg p.o., 1 h): 0
- Number of Mice Affected: Decreased Startle Reflex (40 mg/kg p.o., 1 h): 0
- Number of Mice Affected: Extensor Limb Tone (hind limb) (40 mg/kg p.o., 1 h): 0
- Number of Mice Affected: Impaired Horizontal Screen Performance (40 mg/kg p.o., 1 h): 0
- Number of Mice Affected: Impaired Visual Placing Reflex (40 mg/kg p.o., 1 h): 0
- Number of Mice Affected: Loss of Corneal Reflex (40 mg/kg p.o., 1 h): 0
- Number of Mice Affected: Loss of Pinnal Reflex (40 mg/kg p.o., 1 h): 0
- Number of Mice Affected: Loss of Righting Reflex (40 mg/kg p.o., 1 h): 0
- Number of Mice Affected: Passive Response to Handling (40 mg/kg p.o., 1 h): 0
- Number of Mice Affected: Reduced Skin Plasticity (40 mg/kg p.o., 1 h): 0
- Number of Mice Affected: Soft Body Tone (40 mg/kg p.o., 1 h): 0
- Number of Mice Affected: Tail Pinch Response, Absent (40 mg/kg p.o., 1 h): 0
- Number of Mice Affected: Decreased Open Field Activity (40 mg/kg p.o., 4 h): 0
- Number of Mice Affected: Decreased Startle Reflex (40 mg/kg p.o., 4 h): 0
- Number of Mice Affected: Extensor Limb Tone (hind limb) (40 mg/kg p.o., 4 h): 0
- Number of Mice Affected: Impaired Horizontal Screen Performance (40 mg/kg p.o., 4 h): 0
- Number of Mice Affected: Impaired Visual Placing Reflex (40 mg/kg p.o., 4 h): 0
- Number of Mice Affected: Loss of Corneal Reflex (40 mg/kg p.o., 4 h): 0
- Number of Mice Affected: Loss of Pinnal Reflex (40 mg/kg p.o., 4 h): 0
- Number of Mice Affected: Loss of Righting Reflex (40 mg/kg p.o., 4 h): 0
- Number of Mice Affected: Passive Response to Handling (40 mg/kg p.o., 4 h): 0
- Number of Mice Affected: Reduced Skin Plasticity (40 mg/kg p.o., 4 h): 0
- Number of Mice Affected: Soft Body Tone (40 mg/kg p.o., 4 h): 0
- Number of Mice Affected: Tail Pinch Response, Absent (40 mg/kg p.o., 4 h): 0
- Number of Mice Affected: Decreased Open Field Activity (100 mg/kg p.o., 1 h): 0
- Number of Mice Affected: Decreased Startle Reflex (100 mg/kg p.o., 1 h): 0
- Number of Mice Affected: Extensor Limb Tone (hind limb) (100 mg/kg p.o., 1 h): 0
- Number of Mice Affected: Impaired Horizontal Screen Performance (100 mg/kg p.o., 1 h): 0
- Number of Mice Affected: Impaired Visual Placing Reflex (100 mg/kg p.o., 1 h): 0
- Number of Mice Affected: Loss of Corneal Reflex (100 mg/kg p.o., 1 h): 0
- Number of Mice Affected: Loss of Pinnal Reflex (100 mg/kg p.o., 1 h): 0
- Number of Mice Affected: Loss of Righting Reflex (100 mg/kg p.o., 1 h): 0
- Number of Mice Affected: Passive Response to Handling (100 mg/kg p.o., 1 h): 0
- Number of Mice Affected: Reduced Skin Plasticity (100 mg/kg p.o., 1 h): 0
- Number of Mice Affected: Soft Body Tone (100 mg/kg p.o., 1 h): 0
- Number of Mice Affected: Tail Pinch Response, Absent (100 mg/kg p.o., 1 h): 0
- Number of Mice Affected: Decreased Open Field Activity (100 mg/kg p.o., 4 h): 0
- Number of Mice Affected: Decreased Startle Reflex (100 mg/kg p.o., 4 h): 0
- Number of Mice Affected: Extensor Limb Tone (hind limb) (100 mg/kg p.o., 4 h): 0
- Number of Mice Affected: Impaired Horizontal Screen Performance (100 mg/kg p.o., 4 h): 0
- Number of Mice Affected: Impaired Visual Placing Reflex (100 mg/kg p.o., 4 h): 0
- Number of Mice Affected: Loss of Corneal Reflex (100 mg/kg p.o., 4 h): 0
- Number of Mice Affected: Loss of Pinnal Reflex (100 mg/kg p.o., 4 h): 0
- Number of Mice Affected: Loss of Righting Reflex (100 mg/kg p.o., 4 h): 0
- Number of Mice Affected: Passive Response to Handling (100 mg/kg p.o., 4 h): 0
- Number of Mice Affected: Reduced Skin Plasticity (100 mg/kg p.o., 4 h): 0
- Number of Mice Affected: Soft Body Tone (100 mg/kg p.o., 4 h): 0
- Number of Mice Affected: Tail Pinch Response, Absent (100 mg/kg p.o., 4 h): 0
- Number of Mice Affected: Decreased Open Field Activity (300 mg/kg p.o., 1 h): 3
- Number of Mice Affected: Decreased Startle Reflex (300 mg/kg p.o., 1 h): 3
- Number of Mice Affected: Extensor Limb Tone (hind limb) (300 mg/kg p.o., 1 h): 3
- Number of Mice Affected: Impaired Horizontal Screen Performance (300 mg/kg p.o., 1 h): 3
- Number of Mice Affected: Impaired Visual Placing Reflex (300 mg/kg p.o., 1 h): 3
- Number of Mice Affected: Loss of Corneal Reflex (300 mg/kg p.o., 1 h): 3
- Number of Mice Affected: Loss of Pinnal Reflex (300 mg/kg p.o., 1 h): 3
- Number of Mice Affected: Loss of Righting Reflex (300 mg/kg p.o., 1 h): 3
- Number of Mice Affected: Passive Response to Handling (300 mg/kg p.o., 1 h): 3
- Number of Mice Affected: Reduced Skin Plasticity (300 mg/kg p.o., 1 h): 3
- Number of Mice Affected: Soft Body Tone (300 mg/kg p.o., 1 h): 3
- Number of Mice Affected: Tail Pinch Response, Absent (300 mg/kg p.o., 1 h): 3
- Number of Mice Affected: Decreased Open Field Activity (300 mg/kg p.o., 4 h): 2
- Number of Mice Affected: Decreased Startle Reflex (300 mg/kg p.o., 4 h): 0
- Number of Mice Affected: Extensor Limb Tone (hind limb) (300 mg/kg p.o., 4 h): 2
- Number of Mice Affected: Impaired Horizontal Screen Performance (300 mg/kg p.o., 4 h): 2
- Number of Mice Affected: Impaired Visual Placing Reflex (300 mg/kg p.o., 4 h): 0
- Number of Mice Affected: Loss of Corneal Reflex (300 mg/kg p.o., 4 h): 0
- Number of Mice Affected: Loss of Pinnal Reflex (300 mg/kg p.o., 4 h): 0
- Number of Mice Affected: Loss of Righting Reflex (300 mg/kg p.o., 4 h): 0
- Number of Mice Affected: Passive Response to Handling (300 mg/kg p.o., 4 h): 0
- Number of Mice Affected: Reduced Skin Plasticity (300 mg/kg p.o., 4 h): 0
- Number of Mice Affected: Soft Body Tone (300 mg/kg p.o., 4 h): 2
- Number of Mice Affected: Tail Pinch Response, Absent (300 mg/kg p.o., 4 h): 0
Structure (SMILES): NC(=O)OC[C@@H](O)c1ccccc1Cl [COMPOUND #7, carisbamate]
- Number of Mice Affected: Locomotor Ataxia (40 mg/kg p.o., 1 h): 0
- Number of Mice Affected: Locomotor Ataxia (40 mg/kg p.o., 4 h): 0
- Number of Mice Affected: Locomotor Ataxia (100 mg/kg p.o., 1 h): 0
- Number of Mice Affected: Locomotor Ataxia (100 mg/kg p.o., 4 h): 0
- effect on general behavior in mice (300 mg/kg p.o.): produced sedation
- Number of Mice Affected: Locomotor Ataxia (300 mg/kg p.o., 1 h): 0
- Number of Mice Affected: Locomotor Ataxia (300 mg/kg p.o., 4 h): 2
- behavioral or physical signs in mice (doses up to 100 mg/kg p.o.): No behavioral or physical signs were observed
